According to ChEMBL document CHEMBL1201862, “PubChem BioAssay data set” (2004):
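Exposure lasted 48 hours, with cells grown in 96-well plates and compounds tested at five concentrations. GI50 marks 50% less growth.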 The source made the active and inactive calls. Rule as the data show it: active = GI50 up to about 1.1 µM and inactive = higher.

Columns and labels:
Assay in all cases: DTP human tumour cell line panel, 48 h
[1] = tested on: XF498
[2] = tested on: A498
[3] = tested on: M14
[4] = tested on: KM-20L2
[5] = tested on: HCT-15
[6] = tested on: UACC-257
[7] = tested on: MOLT-4
[8] = tested on: HOP-92
[9] = tested on: SK-MEL-2
[10] = tested on: IGROV-1
[11] = tested on: K562
[12] = tested on: 786-0
[13] = tested on: SNB-78
[14] = tested on: LOX IMVI
[15] = tested on: SNB-75
[16] = tested on: EKVX
[17] = tested on: OVCAR-5
[18] = tested on: M19-MEL
[19] = tested on: NCI-H522
[20] = tested on: SF-268
[21] = tested on: HT-29
[22] = tested on: KM12
[23] = tested on: HCT-116
[24] = tested on: CAKI-1
[25] = tested on: UO-31
[26] = tested on: SN12C
[27] = tested on: TK-10
[28] = tested on: DMS-273
[29] = tested on: SNB-19
[30] = tested on: HOP-18
[31] = tested on: COLO 205
[32] = tested on: DLD-1
[33] = tested on: ACHN
[34] = tested on: OVCAR-8
[35] = tested on: OVCAR-4
[36] = tested on: UACC-62
[37] = tested on: HCC 2998
[38] = tested on: NCI-H460
[39] = tested on: DMS-114
[40] = tested on: SF-295
[41] = tested on: HOP-62
[42] = tested on: SK-MEL-28
[43] = tested on: RXF 393
[44] = tested on: Malme-3M
[45] = tested on: U-251
[46] = tested on: SK-OV-3
[47] = tested on: SR
[48] = tested on: HL-60
[49] = tested on: OVCAR-3
[50] = tested on: RPMI-8226
[51] = tested on: A549
[52] = tested on: SF-539
[53] = tested on: LXFL 529
[54] = tested on: NCI-H23
[55] = tested on: SW-620
[56] = tested on: CCRF-CEM
[57] = tested on: SK-MEL-5
[58] = tested on: Hs-578T
[59] = tested on: NCI-H226
[60] = tested on: T47D
[61] = tested on: NCI/ADR-RES
[62] = tested on: PC-3
[63] = tested on: BT-549
[64] = tested on: MDA-MB-231
[65] = tested on: DU-145
[66] = tested on: MDA-MB-435
[67] = tested on: MDA-N
[68] = tested on: MCF7

COc1ccc(CN(O)C2C(CO)OC(n3cc(I)c(=O)[nH]c3=O)C2O)cc1 (centres undefined)
GI50 [1]: > 100 µM (inactive) | GI50 [2]: > 100 µM (inactive) | GI50 [3]: > 100 µM (inactive) | GI50 [4]: > 100 µM (inactive) | GI50 [5]: > 0.1 mM | GI50 [6]: > 100 µM (inactive) | GI50 [7]: > 100 µM (inactive) | GI50 [8]: > 100 µM (inactive) | GI50 [9]: > 100 µM (inactive) | GI50 [10]: > 100 µM (inactive) | GI50 [11]: > 100 µM (inactive) | GI50 [12]: > 100 µM (inactive) | GI50 [13]: > 100 µM (inactive) | GI50 [14]: > 100 µM (inactive) | GI50 [15]: > 100 µM (inactive) | GI50 [16]: > 100 µM (inactive) | GI50 [17]: > 100 µM (inactive) | GI50 [18]: > 100 µM (inactive) | GI50 [19]: > 100 µM (inactive) | GI50 [20]: > 100 µM (inactive) | GI50 [21]: > 100 µM (inactive) | GI50 [22]: > 100 µM (inactive) | GI50 [23]: > 100 µM (inactive) | GI50 [24]: > 100 µM (inactive) | GI50 [25]: > 100 µM (inactive) | GI50 [26]: > 100 µM (inactive) | GI50 [27]: > 100 µM (inactive) | GI50 [28]: > 100 µM (inactive) | GI50 [29]: > 100 µM (inactive) | GI50 [30]: > 100 µM (inactive) | GI50 [31]: > 100 µM (inactive) | GI50 [32]: > 100 µM (inactive) | GI50 [33]: > 100 µM (inactive) | GI50 [34]: > 100 µM (inactive) | GI50 [35]: > 100 µM (inactive) | GI50 [36]: > 100 µM (inactive) | GI50 [37]: > 100 µM (inactive) | GI50 [38]: > 100 µM (inactive) | GI50 [39]: > 100 µM (inactive) | GI50 [40]: > 100 µM (inactive) | GI50 [41]: > 100 µM (inactive) | GI50 [42]: > 100 µM (inactive) | GI50 [43]: > 100 µM (inactive) | GI50 [44]: > 100 µM (inactive) | GI50 [45]: > 100 µM (inactive) | GI50 [46]: > 100 µM (inactive) | GI50 [47]: > 100 µM (inactive) | GI50 [48]: > 100 µM (inactive) | GI50 [49]: > 100 µM (inactive) | GI50 [50]: > 100 µM (inactive) | GI50 [51]: > 100 µM (inactive) | GI50 [52]: > 100 µM (inactive) | GI50 [53]: > 100 µM (inactive) | GI50 [54]: > 100 µM (inactive) | GI50 [55]: > 100 µM (inactive) | GI50 [56]: > 100 µM (inactive) | GI50 [57]: > 100 µM (inactive)

Cc1cn(C2CC(O)C(CO)O2)c(=O)[nH]c1=O (centres undefined)
GI50 [1]: 263 µM (inactive) | GI50 [2]: > 4670 µM (inactive) | GI50 [3]: 1850 µM (inactive) | GI50 [4]: 3360 µM (inactive) | GI50 [58]: 3.9 mM (inactive) | GI50 [5]: 3.37 mM | GI50 [6]: 3760 µM (inactive) | GI50 [7]: 386 µM (inactive) | GI50 [8]: 3020 µM (inactive) | GI50 [9]: 3880 µM (inactive) | GI50 [10]: > 4900 µM (inactive) | GI50 [11]: 1540 µM (inactive) | GI50 [12]: 1160 µM (inactive) | GI50 [13]: 3180 µM (inactive) | GI50 [59]: 3.78 mM (inactive) | GI50 [14]: 1310 µM (inactive) | GI50 [15]: 3630 µM (inactive) | GI50 [16]: 2380 µM (inactive) | GI50 [17]: 4060 µM (inactive) | GI50 [60]: > 4.08 mM (inactive) | GI50 [18]: 1070 µM (inactive) | GI50 [61]: 2.26 mM (inactive) | GI50 [19]: 1690 µM (inactive) | GI50 [62]: > 5 mM (inactive) | GI50 [20]: 2280 µM (inactive) | GI50 [21]: 4430 µM (inactive) | GI50 [22]: > 4930 µM (inactive) | GI50 [63]: > 5 mM (inactive) | GI50 [23]: 1930 µM (inactive) | GI50 [64]: > 3.52 mM (inactive) | GI50 [24]: 1420 µM (inactive) | GI50 [25]: 3670 µM (inactive) | GI50 [65]: > 4.45 mM (inactive) | GI50 [26]: 1220 µM (inactive) | GI50 [27]: > 5000 µM (inactive) | GI50 [66]: 4.94 mM (inactive) | GI50 [28]: 3780 µM (inactive) | GI50 [29]: 1730 µM (inactive) | GI50 [30]: 4610 µM (inactive) | GI50 [31]: 3090 µM (inactive) | GI50 [32]: 2700 µM (inactive) | GI50 [33]: 1840 µM (inactive) | GI50 [67]: 3.78 mM (inactive) | GI50 [34]: 1590 µM (inactive) | GI50 [35]: > 3890 µM (inactive) | GI50 [36]: 843 µM (inactive) | GI50 [37]: 3680 µM (inactive) | GI50 [38]: 655 µM (inactive) | GI50 [39]: 728 µM (inactive) | GI50 [40]: 2290 µM (inactive) | GI50 [41]: 1380 µM (inactive) | GI50 [42]: 1360 µM (inactive) | GI50 [43]: 2510 µM (inactive) | GI50 [44]: 2410 µM (inactive) | GI50 [45]: 1530 µM (inactive) | GI50 [46]: 2480 µM (inactive) | GI50 [47]: > 2020 µM (inactive) | GI50 [48]: > 4760 µM (inactive) | GI50 [49]: 1490 µM (inactive) | GI50 [50]: 2050 µM (inactive) | GI50 [51]: 689 µM (inactive) | GI50 [52]: 3670 µM (inactive) | GI50 [54]: 1020 µM (inactive) | GI50 [55]: 2130 µM (inactive) | GI50 [68]: 325 µM (inactive) | GI50 [56]: 54.7 µM (inactive) | GI50 [57]: 4450 µM (inactive)
